Each structure is given as a SMILES string.

Consider 2 compounds from US6407113B1, “Medicament for treatment of diastolic dysfunction” (Mitsubishi Chemical Corporation, priority 1998, dated 2002).

For test [1], the target named is T1, sarcoplasmic reticulum Ca^2+-ATPase (Canis lupus familiaris, UniProt O46674).
T1 construct: sarcoplasmic reticulum from both post-ischemic and non-ischemic regions of the left ventricle of dogs; from tissue; host or cells: dog left ventricle (LAD occluded 30 min, reperfused 30 min), sarcoplasmic reticulum fraction
T1 sequence (O46674 whole entry, the tested form may be a part): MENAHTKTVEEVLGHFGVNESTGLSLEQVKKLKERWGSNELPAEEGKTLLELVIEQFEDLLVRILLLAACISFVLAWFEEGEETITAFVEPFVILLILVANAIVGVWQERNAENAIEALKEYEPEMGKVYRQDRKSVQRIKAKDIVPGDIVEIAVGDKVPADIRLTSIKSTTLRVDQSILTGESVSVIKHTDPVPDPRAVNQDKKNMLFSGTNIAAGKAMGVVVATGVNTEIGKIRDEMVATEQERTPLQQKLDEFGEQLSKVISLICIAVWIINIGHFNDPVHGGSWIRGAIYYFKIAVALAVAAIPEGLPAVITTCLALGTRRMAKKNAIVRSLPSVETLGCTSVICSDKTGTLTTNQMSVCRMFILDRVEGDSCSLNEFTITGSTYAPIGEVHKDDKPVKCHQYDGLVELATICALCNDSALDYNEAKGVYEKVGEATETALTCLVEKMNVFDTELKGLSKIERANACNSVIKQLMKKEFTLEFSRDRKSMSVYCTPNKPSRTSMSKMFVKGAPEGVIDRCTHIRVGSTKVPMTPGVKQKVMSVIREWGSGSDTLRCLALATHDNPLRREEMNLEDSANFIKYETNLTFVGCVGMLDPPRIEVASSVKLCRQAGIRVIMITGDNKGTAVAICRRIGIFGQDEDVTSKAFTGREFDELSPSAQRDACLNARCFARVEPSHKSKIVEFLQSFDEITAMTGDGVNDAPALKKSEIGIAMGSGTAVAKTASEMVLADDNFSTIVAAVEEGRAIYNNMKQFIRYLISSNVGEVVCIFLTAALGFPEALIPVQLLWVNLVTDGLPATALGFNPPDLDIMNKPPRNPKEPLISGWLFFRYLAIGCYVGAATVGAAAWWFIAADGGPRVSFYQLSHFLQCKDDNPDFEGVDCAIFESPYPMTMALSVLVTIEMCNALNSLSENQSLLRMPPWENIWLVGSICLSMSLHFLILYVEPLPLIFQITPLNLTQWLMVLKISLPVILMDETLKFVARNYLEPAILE
Description: Sarcoplasmic reticulum Ca2+-ATPase activity of myocardium collected after in vivo drug administration (Pi colorimetry). It is filed as biochemical, dog. How it is done:
After hemodynamic stability is established following operation, the dissected portion of LAD was occluded for 30 minutes and then reperfused for 1 hour. At the same time, the cardiac function (%SS) in the above-described ischemic/reperfused region was continuously monitored through-out the protocol.
The animals were randomly grouped into two groups, one consisting of animals to be administered with the medicament of the present invention (Drug administration group; N=6) and the other of control group (N-6). The dogs of drug administration group were intravenously administered with the medicament of the present invention (3 μg/kg) into the right femoral vein 5 minutes before reperfusion, followed by continuous infusion at 30 μg/kg/hr. Dogs of the control group were administered with the equal amount of saline.
After 1-hour reperfusion, their hearts were isolated and the myocardium in post-ischemic region and non-ischemic region of the left ventricles were collected from which the fractions having sarcoplasmic reticulum Ca^2+-ATPase activity were extracted to be subjected to protein assay (Bradford method) and stored at −80° C. The defrozen fractions were used to determine Ca^2+-ATPase activity. The activity was determined by measuring the amount of the generated inorganic phosphate (Pi) by colorimetry using phosphor/molybdic acid and malachite green (μmoles Pi/mg protein/min).
Next, results obtained from the Ca^2+-ATPase activity assay of the sarcoplasmic reticulum collected from each region are shown in FIGS. 2 and 3.

In test [2] the target is T1, sarcoplasmic reticulum Ca^2+-ATPase. Kind of test: Direct effect in vitro on sarcoplasmic reticulum Ca2+-ATPase activity. The conditions noted are these: preincubation 37° C. 5 min; for sarcoplasmic reticulum Ca^2+-ATPase activity, post-ischemic region, in vitro: control 0.045±0.005; for sarcoplasmic reticulum Ca^2+-ATPase activity, non-ischemic region, in vitro: control 0.057±0.003. It is filed as biochemical, dog. How it is done: The Ca^2+-ATPase activity of the sarcoplasmic reticulum from both post-ischemic and non-ischemic regions of the left ventricle of dogs, in which LAD was occluded for 30 minutes followed by reperfusion for 30 minutes, was measured in the same manner as in Example 1. The direct effect of the medicament of the present invention on the sarcoplasmic reticulum was examined in vitro by determining the amount of inorganic phophorous generated during the reaction for 15 minutes, which was triggered by adding ATP to the reaction solution, with the preincubated medicament of the present invention at 37° C. for 5 minutes.
For each of post-ischemic region and non-ischemic region (N=6), three groups were tested; control group which was preincubated with H2O, groups with low level dosage (10^−7 M of the medicament of the present invention was administered), and group with high level dosage (10^−6 M of the medicament of the present invention was administered)

Test [3] deals with ischemic/reperfused myocardium. Description: Regional cardiac function (%SS) in brief-ischemic/reperfused myocardium in dogs. It is filed as in vivo. The conditions noted are these: dog; 30 min LAD occlusion, 1 h reperfusion; 3 μg/kg i.v. 5 min before reperfusion then 30 μg/kg/hr infusion. How it is done: The chest of mongrel dogs (adult, male and female) was opened under anesthesia with pentobarbital (30 mg/kg, i.v.) and a portion of the left coronary anterior descending (LAD) was dissected. A catheter-tip-pressure transducer (Millar; MPC-500) was inserted from the left carotidartery into the left ventricle to determine the left ventricular pressure and its first differential value (dP/dt). A pair of crystal probes were mounted in the LAD region to determine changes in regional segment length. Diastolic segment length (EDL; threshold point of dP/dt) and systolic segment length (ESL; dP/dt(−) max point) were determined from the waveform of dP/dt, and the regional segment shortening (%SS) in the ischemic/reperfused myocardium was calculated as follows: %SS=(EDL−ESL)/EDL×100. After hemodynamic stability is established following operation, the dissected portion of LAD was occluded for 30 minutes and then reperfused for 1 hour. At the same time, the cardiac function (%SS) in the above-described ischemic/reperfused region was continuously monitored through-out the protocol. The animals were randomly grouped into two groups, one consisting of animals to be administered with the medicament of the present invention (Drug administration group; N=6) and the other of control group (N-6). […]

Take `C/C=C(/C)C(=O)O[C@H]1C(C)=C2[C@H]([C@@H]1OC(=O)CCCCCCC)[C@@](C)(OC(C)=O)C[C@H](OC(=O)CCC)[C@@]1(O)[C@H]2OC(=O)[C@@]1(C)O` [Thapsigargin, reference compound]: the “inhibition of the ATPase activity of the sarcoplasmic reticulum fraction” value in test [1] (1 μM) is reported as “completely inhibited”.

For the compound `Cc1ccc(N2CCNCC2)c(S(=O)(=O)O)c1` [medicament of the present invention, 2-(1-piperazinyl)-5-methylbenzenesulfonic acid derivative monohydrate], the “sarcoplasmic reticulum Ca^2+-ATPase activity, post-ischemic region” value in test [1] (Ca^2+ 10 μM, dog dosed in vivo 3 μg/kg i.v. + 30 μg/kg/hr, control group 0.070±0.004) was 0.090±0.008 μmol Pi/mg min. In test [1] (Ca^2+ 10 μM, dog dosed in vivo 3 μg/kg i.v. + 30 μg/kg/hr, control group 0.089±0.009), the “sarcoplasmic reticulum Ca^2+-ATPase activity, non-ischemic region” value is 0.088±0.006 μmol Pi/mg min. Besides, the results for the “sarcoplasmic reticulum Ca^2+-ATPase activity, post-ischemic region, in vitro” value in test [2] (10^−6 M (high concentration)) and in test [2] (10^−7 M (low concentration)) were 0.062±0.005 μmol Pi/mg min and 0.057±0.003 μmol Pi/mg min, respectively. In addition, the “sarcoplasmic reticulum Ca^2+-ATPase activity, non-ischemic region, in vitro” value in test [2] (10^−6 M (high level dosage)) is given as 0.060±0.003 μmol Pi/mg min; in test [2] (10^−7 M (low level dosage)), 0.062±0.002 μmol Pi/mg min. Besides, the “regional cardiac function (%SS) in post-reperfusion region compared to control group” value in test [3] is on record as “significantly improved”.
